We go through two compounds from patent EP2669288A1, “New monosaccharide derivatives and biological applications thereof” (L[…], priority 2012, dated 2013).

In one experiment the target is HldE of E. coli (Escherichia coli, UniProt P76658). Briefly: Inhibition of the enzymatic activity of HldE-K (luminescent assay on kinase activity). The experiment is classed as biochemical. Conditions: 3nM HldE, 0.2µM β-heptose-7-phosphate, 0.2µM ATP; 30min pre-incubation. The procedure:
Inhibition of the enzymatic activity of HldE-K (luminescent assay on kinase activity):
The assay buffer "AB" contained 50 mM Hepes pH7.5, 1 mM MnCl2, 25 mM KCl, 0.012% Triton-X100 and 1mm dithiothreitol (DTT) and 0.1µM Myelin basic protein (MBP). The following components were added in a white polystyrene Costar plate up to a final volume of 30µL: 10µL inhibitor dissolved in DMSO/water 50/50, and 20µL HldE of E. coli in AB. After 30min of pre-incubation at room temperature, 30µL of Substrates mix in AB were added in each well to a final volume of 60µL. This reaction mixture was then composed of 3nM HldE, 0.2µM β-heptose-7-phosphate (custom synthesis) and 0.2µM ATP (Sigma) in assay buffer. After 30min of incubation at room temperature, 200µL of the revelation mix were added to a final volume of 260µL, including the following constituents at the respective final concentrations: 5000 light units/ml luciferase (Sigma), 30µM D-luciferin (Sigma), 100µM N-acetylcysteamine (Aldrich). Luminescence intensity was immediately measured on Luminoskan (Thermofischer) and converted into inhibition percentages. For IC50 determinations, the inhibitor was tested at 6 to 10 different concentrations, and the related inhibitions were fitted to a classical Langmuir equilibrium model using XLFIT (IDBS).

Experiment [1] deals with E. coli C7 LPS heptosylation. The experiment in a line: Inhibition of E. coli C7 LPS biosynthesis (LPS gel electrophoresis, silver staining). The class given is cell-based, E. coli C7 (018:K1:H7). The procedure: Inhibition of E. coli C7 (018:K1:H7) LPS biosynthesis:
The inner core contains several heptose residues. An inhibitor of the LPS heptosylation pathway should therefore reduce dramatically the size of LPS from full-length to the so-called 'Re-LPS' limited to lipid A branched with 2 Kdo residues.
Bacterial culture: The effect of heptosylation inhibitors on E. coli LPS was assessed as described below. The compounds to be tested were prepared in deionised water/DMSO (50/50) solutions and added (25µL) in sterile culture microtubes. The strain used in this study was E. coli C7 (018:K1:H7). The bacteria were isolated on tryptic soy agar (TSA) over-night. […]
LPS extraction: Bacterial cultures were normalized via OD determination, pelleted and washed with 1ml Phosphate-Buffer-Saline (PBS). […] The resulting supernatant, containing LPS was finally analysed by SDS-PAGE electrophoresis. […]
Silver staining: Gels were incubated overnight in 5% acetic acid/40% ethanol/deionised water, treated by 1% periodic acid/5% acetic acid for 15min, washed 4 times for 10min in deionised water and finally incubated for 18min in the dark in a silver nitrate solution composed of 56ml NaOH 0.1N, 4ml ammoniac 33%, 45ml AgN03 5% (Tsai and Frasch) and 195 ml deionised water. […] Gels were finally washed in deionised water, numerized with a Samsung PL51 camera and analysed by ImageJ software. […]

Another experiment relates to E. coli C7 (018:K1:H7). Briefly: Killing of the bacteria in culture with compound. The experiment is classed as cell-based. Conditions: at 1 mM. The procedure:
Bacterial culture: The effect of heptosylation inhibitors on E. coli LPS was assessed as described below. The compounds to be tested were prepared in deionised water/DMSO (50/50) solutions and added (25µL) in sterile culture microtubes. The strain used in this study was E. coli C7 (018:K1:H7). The bacteria were isolated on tryptic soy agar (TSA) over-night. Isolated colonies were cultured in 10ml of Luria-Bertani medium (LB) at 37°C up to an optical density of typically 0.15. These exponentially growing bacteria were finally diluted to 5e5 cfu/ml and added in each well (225µL) for incubation with the compounds at 37°C for approximately 5 hours, up to an optical density of ≈0.2-0.4. Some test compounds e.g. phospho-sugars required Glucose-6-Phosphate (G6P, from Sigma) to be added in the culture medium in order to activate their active transport into the bacterial cytosol via the phospho-sugar transporter UhpT. This was achieved by adding in the culture tube 2.5µL of a 10mM water solution of G6P (100µM final concentration).

In the next experiment the target is GmhA of E. coli (Escherichia coli, UniProt P63224). Briefly: Inhibition of the enzymatic activity of GmhA (luminescent assay). The class given is biochemical. The settings on record: 2nM GmhA, 3µM sedoheptulose-7-phosphate, 3µM ATP, 50nM HldE; 30min pre-incubation. As for the experimental part: Inhibition of the enzymatic activity of GmhA (luminescent assay):
The assay buffer "AB" contained 50 mM Hepes pH7.5, 1 mM MnCl2, 25 mM KCl, 0.012% Triton-X100 and 1mm dithiothreitol (DTT) and 0.1µM Myelin basic protein (MBP). The following components were added in a white polystyrene Costar plate up to a final volume of 30µL: 10µL inhibitor dissolved in DMSO/water 50/50, and 20µL GmhA of E. coli in AB. After 30min of pre-incubation at room temperature, 30µL of Substrates mix in AB were added in each well to a final volume of 60µL. This reaction mixture was then composed of 2nM GmhA, 3µM sedoheptulose-7-phosphate (Sigma), 3µM ATP (Sigma) and 50nM HldE of E. coli in assay buffer. After 30min of incubation at room temperature, 100µL of the revelation mix were added to a final volume of 160µL, including the following constituents at the respective final concentrations: 10000 light units/ml luciferase (Sigma), 20µM D-luciferin (Sigma), 100µM N-acetylcysteamine (Aldrich). Luminescence intensity was immediately measured on Luminoskan (Thermofischer) and converted into inhibition percentages. For IC50 determinations, the inhibitor was tested at 6 to 10 different concentrations, and the related inhibitions were fitted to a classical langmuir equilibrium model using XLFIT (IDBS).

Structures can show the parent of a compound that is named as a salt. Some results are limits rather than exact numbers.

GmhA of E. coli, sequence (P63224 whole entry): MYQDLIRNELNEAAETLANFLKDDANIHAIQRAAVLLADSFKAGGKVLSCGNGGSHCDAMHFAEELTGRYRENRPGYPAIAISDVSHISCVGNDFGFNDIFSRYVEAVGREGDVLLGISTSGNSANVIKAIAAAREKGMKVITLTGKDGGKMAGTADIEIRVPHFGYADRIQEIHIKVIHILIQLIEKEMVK
HldE of E. coli, sequence (P76658 whole entry): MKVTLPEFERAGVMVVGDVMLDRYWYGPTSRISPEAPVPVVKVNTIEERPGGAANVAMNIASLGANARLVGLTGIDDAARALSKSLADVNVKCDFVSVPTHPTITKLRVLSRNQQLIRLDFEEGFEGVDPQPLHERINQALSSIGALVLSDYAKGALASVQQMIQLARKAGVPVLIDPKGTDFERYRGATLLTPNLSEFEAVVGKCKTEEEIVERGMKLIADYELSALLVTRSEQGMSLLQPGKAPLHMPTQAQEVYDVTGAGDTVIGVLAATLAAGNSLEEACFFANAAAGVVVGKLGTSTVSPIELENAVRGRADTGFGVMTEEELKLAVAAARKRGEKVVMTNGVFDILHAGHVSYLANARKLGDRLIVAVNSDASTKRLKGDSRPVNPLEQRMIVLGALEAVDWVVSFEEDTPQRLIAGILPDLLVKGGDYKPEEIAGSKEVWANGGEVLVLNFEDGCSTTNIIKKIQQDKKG

For `N[C@H]1C(O)O[C@H]([C@H](O)COP(=O)(O)O)[C@@H](O)[C@@H]1O` (stereo partly drawn) [Example 2, 7-O-phosphate-D-glycero-D-gluco-2-deoxy-2-amino-heptopyranoside hydrochloride], the IC50 at HldE of E. coli and against GmhA of E. coli was less than 100 µM each time. The “reducing LPS heptosylation” value in experiment [1] (in absence of G6P) was “inactive”. Moreover, the “inhibition of E. coli C7 LPS heptosylation” value in experiment [1] (in the presence of 100 µM G6P, at concentrations < 1 mM) is listed as “at least 50%”. In the experiment with E. coli C7 (018:K1:H7), the “killing of the bacteria” value is listed as “did not kill the bacteria”.
In the case of “7-O-phosphate-D-glycero-D-gluco-2-deoxy-2-amino-1-deoxy-heptopyranoside hydrochloride [Example 1]”, the IC50 against HldE of E. coli and against GmhA of E. coli was less than 100 µM throughout.
